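Five compound concentrations were applied to cells in 96-well plates for 48 hours; endpoints were derived by simple linear interpolation of the resulting dose-response curve. Here, GI50 denotes the concentration required for 50% inhibition of growth. TGI: total growth inhibition.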
What was measured:
Experiment in all cases: growth of human tumour cells (NCI), 48 h
[1] = tested on: 786-0 renal
[2] = tested on: A498 renal
[3] = tested on: A549 NSCLC
[4] = tested on: ACHN renal
[5] = tested on: BT-549 breast
[6] = tested on: CAKI-1 renal
[7] = tested on: CCRF-CEM leukemia
[8] = tested on: COLO 205 colon
[9] = tested on: DU-145 prostate
[10] = tested on: EKVX NSCLC
[11] = tested on: HCC-2998 colon
[12] = tested on: HCT-116 colon
[13] = tested on: HCT-15 colon
[14] = tested on: HL-60(TB) leukemia
[15] = tested on: HOP-62 NSCLC
[16] = tested on: HOP-92 NSCLC
[17] = tested on: HS 578T breast
[18] = tested on: HT29 colon
[19] = tested on: IGROV1 ovarian
[20] = tested on: K-562 leukemia
[21] = tested on: KM12 colon
[22] = tested on: LOX IMVI melanoma
[23] = tested on: M14 melanoma
[24] = tested on: MALME-3M melanoma
[25] = tested on: MCF7 breast
[26] = tested on: MDA-MB-231 breast
[27] = tested on: MDA-MB-435
[28] = tested on: MDA-N
[29] = tested on: MOLT-4 leukemia
[30] = tested on: NCI-H226 lung
[31] = tested on: NCI-H23 lung
[32] = tested on: NCI-H460 lung
[33] = tested on: NCI-H522 lung
[34] = tested on: NCI/ADR-RES ovarian
[35] = tested on: OVCAR-3 ovarian
[36] = tested on: OVCAR-4 ovarian
[37] = tested on: OVCAR-5 ovarian
[38] = tested on: OVCAR-8 ovarian
[39] = tested on: PC-3 prostate
[40] = tested on: RPMI-8226 leukemia
[41] = tested on: RXF 393 renal
[42] = tested on: SF-268 CNS
[43] = tested on: SF-295 CNS
[44] = tested on: SF-539 CNS
[45] = tested on: SK-MEL-2 melanoma
[46] = tested on: SK-MEL-28 melanoma
[47] = tested on: SK-MEL-5 melanoma
[48] = tested on: SK-OV-3 ovarian
[49] = tested on: SN12C renal
[50] = tested on: SNB-19 CNS
[51] = tested on: SNB-75 CNS
[52] = tested on: SR leukemia
[53] = tested on: SW-620 colon
[54] = tested on: T-47D breast
[55] = tested on: TK-10 renal
[56] = tested on: U251 CNS
[57] = tested on: UACC-257 melanoma
[58] = tested on: UACC-62 melanoma
[59] = tested on: UO-31 renal
[60] = tested on: DLD-1 colon
[61] = tested on: DMS 114 small cell lung
[62] = tested on: HOP-18 NSCLC
[63] = tested on: KM20L2 colon
[64] = tested on: LXFL 529 NSCLC
[65] = tested on: M19-MEL melanoma
[66] = tested on: SNB-78 CNS

Nc1nc(N)c2nc(CNc3ccc(C(=O)NC(CCCCNC(=O)c4ccccc4C(=O)O)C(=O)O)cc3)cnc2n1 (stereo not drawn)
TGI [1]: > 100 µM
GI50 [2]: 0.0821 µM
TGI [2]: > 100 µM
GI50 [3]: 0.00745 µM
TGI [3]: > 100 µM
GI50 [4]: 0.00519 µM
TGI [4]: > 100 µM
TGI [5]: > 100 µM
GI50 [6]: 0.0237 µM
TGI [6]: > 100 µM
GI50 [7]: 0.00306 µM
TGI [7]: > 100 µM
GI50 [8]: 0.537 µM
TGI [8]: > 100 µM
TGI [9]: > 100 µM
GI50 [10]: 0.036 µM
TGI [10]: > 100 µM
TGI [11]: > 100 µM
GI50 [12]: 0.000622 µM
TGI [12]: > 100 µM
GI50 [13]: 0.00522 µM
TGI [13]: > 100 µM
GI50 [14]: 0.00244 µM
TGI [14]: > 100 µM
GI50 [15]: 0.0305 µM
TGI [15]: > 100 µM
GI50 [16]: > 100 µM
TGI [16]: > 100 µM
TGI [17]: > 100 µM
GI50 [18]: 0.00566 µM
TGI [18]: > 100 µM
TGI [19]: > 100 µM
TGI [20]: > 100 µM
GI50 [21]: 0.00485 µM
TGI [21]: > 100 µM
GI50 [22]: 0.000869 µM
TGI [22]: > 100 µM
TGI [23]: > 100 µM
TGI [24]: > 100 µM
GI50 [25]: 0.00496 µM
TGI [25]: > 100 µM
TGI [26]: > 100 µM
TGI [27]: > 31.6 µM
GI50 [28]: 0.00464 µM
TGI [28]: > 100 µM
TGI [29]: > 100 µM
TGI [30]: > 100 µM
GI50 [31]: 0.00915 µM
TGI [31]: > 100 µM
GI50 [32]: 0.00424 µM
TGI [32]: > 100 µM
TGI [33]: > 100 µM
TGI [34]: > 100 µM
TGI [35]: > 100 µM
TGI [36]: > 100 µM
TGI [37]: > 100 µM
GI50 [38]: 0.0059 µM
TGI [38]: > 100 µM
GI50 [39]: 0.000432 µM
TGI [39]: > 100 µM
TGI [40]: > 100 µM
TGI [41]: > 100 µM
GI50 [42]: 0.00841 µM
TGI [42]: > 100 µM
GI50 [43]: 0.0191 µM
TGI [43]: > 100 µM
GI50 [44]: 0.026 µM
TGI [45]: > 100 µM
TGI [46]: > 100 µM
GI50 [47]: 0.0913 µM
TGI [47]: > 100 µM
TGI [48]: > 100 µM
GI50 [49]: 0.0127 µM
TGI [49]: > 100 µM
TGI [50]: > 100 µM
TGI [51]: > 100 µM
TGI [52]: > 100 µM
GI50 [53]: 0.00342 µM
TGI [53]: > 100 µM
TGI [54]: > 100 µM
TGI [55]: > 100 µM
GI50 [56]: 0.0385 µM
TGI [56]: > 100 µM
TGI [57]: > 100 µM
TGI [58]: > 100 µM
TGI [59]: > 100 µM

CC1(C)OC(=O)C=C([O-])O1.CC1(C)OC(=O)C=C([O-])O1.CC[O-].CC[O-].[Ti+4]
GI50 [1]: > 100 µM
TGI [1]: > 100 µM
GI50 [3]: > 100 µM
TGI [3]: > 100 µM
GI50 [4]: > 100 µM
TGI [4]: > 100 µM
GI50 [6]: > 100 µM
TGI [6]: > 100 µM
GI50 [8]: > 100 µM
TGI [8]: > 100 µM
GI50 [60]: > 100 µM
TGI [60]: > 100 µM
GI50 [61]: > 100 µM
TGI [61]: > 100 µM
GI50 [10]: > 100 µM
TGI [10]: > 100 µM
GI50 [11]: > 100 µM
TGI [11]: > 100 µM
GI50 [12]: > 100 µM
TGI [12]: > 100 µM
GI50 [13]: > 100 µM
TGI [13]: > 100 µM
GI50 [14]: > 100 µM
TGI [14]: > 100 µM
GI50 [62]: > 100 µM
TGI [62]: > 100 µM
GI50 [15]: > 100 µM
TGI [15]: > 100 µM
GI50 [18]: > 100 µM
TGI [18]: > 100 µM
GI50 [19]: > 100 µM
TGI [19]: > 100 µM
GI50 [20]: > 100 µM
TGI [20]: > 100 µM
GI50 [21]: > 100 µM
TGI [21]: > 100 µM
GI50 [63]: > 100 µM
TGI [63]: > 100 µM
GI50 [22]: > 100 µM
TGI [22]: > 100 µM
GI50 [64]: > 100 µM
TGI [64]: > 100 µM
GI50 [23]: > 100 µM
TGI [23]: > 100 µM
GI50 [65]: > 100 µM
TGI [65]: > 100 µM
GI50 [24]: > 100 µM
TGI [24]: > 100 µM
GI50 [29]: > 100 µM
TGI [29]: > 100 µM
GI50 [30]: > 100 µM
TGI [30]: > 100 µM
GI50 [31]: > 100 µM
TGI [31]: > 100 µM
GI50 [32]: > 100 µM
TGI [32]: > 100 µM
GI50 [33]: > 100 µM
TGI [33]: > 100 µM
GI50 [35]: > 100 µM
TGI [35]: > 100 µM
GI50 [36]: > 100 µM
TGI [36]: > 100 µM
GI50 [37]: > 100 µM
TGI [37]: > 100 µM
GI50 [38]: > 100 µM
TGI [38]: > 100 µM
GI50 [40]: > 100 µM
TGI [40]: > 100 µM
GI50 [42]: > 100 µM
TGI [42]: > 100 µM
GI50 [43]: > 100 µM
TGI [43]: > 100 µM
GI50 [44]: > 100 µM
TGI [44]: > 100 µM
GI50 [45]: > 100 µM
TGI [45]: > 100 µM
GI50 [46]: > 100 µM
TGI [46]: > 100 µM
GI50 [47]: > 100 µM
TGI [47]: > 100 µM
GI50 [48]: > 100 µM
TGI [48]: > 100 µM
GI50 [50]: > 100 µM
TGI [50]: > 100 µM
GI50 [51]: > 100 µM
TGI [51]: > 100 µM
GI50 [66]: > 100 µM
TGI [66]: > 100 µM
GI50 [52]: > 100 µM
TGI [52]: > 100 µM
GI50 [53]: > 100 µM
TGI [53]: > 100 µM
GI50 [55]: > 100 µM
TGI [55]: > 100 µM
GI50 [56]: > 100 µM
TGI [56]: > 100 µM
GI50 [57]: > 100 µM
TGI [57]: > 100 µM
GI50 [58]: > 100 µM
TGI [58]: > 100 µM
GI50 [59]: > 100 µM
TGI [59]: > 100 µM

— PubChem BioAssay (NCI)
